# Experimental data published in US20070116800A1, “Chewing Gum with High-Potency Sweetener” (The Coca-Cola Company, priority 2005, published 2007).
# Legend:
# [1] = Rate of dissolution in H2O at 25° C. of rebaudioside A polymorph and amorphous forms; assay type: physicochemical
# [2] = assay type: physicochemical
# Description: A solution of rebaudioside A (>97% pure by HPLC ) was prepared in double distilled water (12.5 gm in 50 mL, 25% concentration) by stirring the mixture at 40° C. for 5 minutes. An amorphous form of_rebaudioside A was formed by immediately using the clear solution for spray drying with the Lab-Plant spray drier SD-04 instrument (Lab-Plant Ltd., West Yorkshire, U.K.). The solution was fed through the feed pump into the nozzle atomizer which atomized it into a spray of droplets with the help of a constant flow of nitrogen/air. […] This dry powder (11-12 g, H2O 6.74%) was discharged continuously from the drying chamber and was collected in a bottle.
Rate of dissolution in H2O at 25° C. (grade in words) [1],Rate of dissolution in H2O at 25° C. ([1]; 60 minutes),Rate of dissolution in H2O at 25° C. ([1]; 5 minutes),solubility in water [2] [%],Substance
Very low,(<0.2%/60 %/60 minutes,,,rebaudioside A [Form 1]
Intermediate,,(<30%/5 %/5 minutes,,rebaudioside A [Form 2]
High,,(>30%/5 %/5 minutes,,rebaudioside A [Form 3]
High,,(>35.0%/5 %/5 minutes,> 35.0,rebaudioside A [Form 4]
